Experimental data: patent US20170252323A1, “4-[2-(Dipropylamino)ethyl]-1,3-dihydro-2H-indol-2-one (Ropinirole) a New Inhibitor of Jack bean Urease Enzyme: An Example of Drug Repurposing” (priority 2016, published 2017)
Where two headings read alike, the source gives them in different places.

Experiments:
[1] = target: Jack bean (Canavalia ensiformis) urease (Canavalia ensiformis, UniProt P07374); assay: biochemical
Source text: Each point in the constructed graphs represents the mean of the three experiments.

urease enzyme = urease enzyme (Canavalia ensiformis, UniProt P07374); assay: Mechanistic studies (Lineweaver-Burk, secondary replot, Dixon plot); format: biochemical; details: Lineweaver-Burk and Dixon plots; substrate 0.5-4.0 mM; Ropinirole 5, 10, 20 μM
Chain of urease enzyme (P07374 whole entry, looked up): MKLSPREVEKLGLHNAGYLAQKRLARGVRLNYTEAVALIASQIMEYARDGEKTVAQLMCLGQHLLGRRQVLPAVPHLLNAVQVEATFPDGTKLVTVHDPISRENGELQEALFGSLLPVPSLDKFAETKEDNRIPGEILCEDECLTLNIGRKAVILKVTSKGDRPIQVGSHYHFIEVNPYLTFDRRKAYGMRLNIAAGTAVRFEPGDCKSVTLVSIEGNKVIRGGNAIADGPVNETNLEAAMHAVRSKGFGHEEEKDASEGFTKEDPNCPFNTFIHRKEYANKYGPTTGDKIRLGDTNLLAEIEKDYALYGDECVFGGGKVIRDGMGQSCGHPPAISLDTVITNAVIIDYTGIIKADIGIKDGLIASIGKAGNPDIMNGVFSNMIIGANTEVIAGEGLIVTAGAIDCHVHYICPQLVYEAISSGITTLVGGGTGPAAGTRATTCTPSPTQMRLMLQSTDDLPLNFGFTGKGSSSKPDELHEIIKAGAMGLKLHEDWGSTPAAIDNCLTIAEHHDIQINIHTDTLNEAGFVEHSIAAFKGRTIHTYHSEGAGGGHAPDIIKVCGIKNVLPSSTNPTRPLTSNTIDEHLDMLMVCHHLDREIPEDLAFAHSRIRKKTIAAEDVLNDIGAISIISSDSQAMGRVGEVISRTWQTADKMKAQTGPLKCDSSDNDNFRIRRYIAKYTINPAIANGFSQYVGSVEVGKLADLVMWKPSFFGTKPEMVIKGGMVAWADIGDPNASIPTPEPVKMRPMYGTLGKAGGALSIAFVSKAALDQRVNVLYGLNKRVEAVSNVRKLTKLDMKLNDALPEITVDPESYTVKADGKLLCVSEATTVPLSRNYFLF
Description: Mechanistic studies were carried out to determine the mechanism of inhibition of 4-[2-(dipropylamino)ethyl]-1,3-dihydro-2H-indol-2-one ( Ropinirole) of the enzyme urease. In brief, urease enzyme solution (1 U/200 μL) was incubated with different concentrations of Ropinirole for 15 min at 30° C. The reaction was then initiated by adding different concentrations of substrate (0.5-4.0 mM), then phenol and alkali reagent were added and change in absorbance was measured for 50 minutes at 630 nm on microtitre plate reader (SpectraMax M5, Molecular Devices, Calif., USA). The Lineweaver-Burk plot was used to determine the type of inhibition, while secondary replot of Lineweaver-Burk plot and Dixon plots were used for the determination and confirmation of dissociation constants (Ki).
The EZ-Fit enzyme kinetics program (Perrella Scientific Inc., Amherst, USA) was employed to calculate the IC50 values. All graphs were plotted by using Grafit 7 (Erithacus Software Limited, UK). Values of the correlation coefficients, intercepts, slopes, and their standard errors were calculated by the linear regression analysis by using the same program. Each point in the constructed graphs represents the mean of the three experiments.

Chain of Jack bean (Canavalia ensiformis) urease (P07374 whole entry, looked up): as above

SMILES | IC50 ([1]; Jack bean urease, 100 mM urea, pH 6.8, 30° C., 15 min, triplicate, read-out: IC50 (urease inhibition)) [µM] | IC50 [1] [µM] | type of inhibition (urease enzyme)
CC(=O)NO [acetohydroxamic acid] | 41.5 ± 1.5 | – | –
CCCN(CCC)CCc1cccc2c1CC(=O)N2 [Ropinirole, 4-[2-(Dipropylamino)ethyl]-1,3-dihydro-2H-indol-2-one] | – | 11.7 ± 0.46 | mixed-type of inhibitor
